TGI and GI50 data for 13 compounds are collected here from PubChem BioAssay (NCI).

SMILES strings stand for the structures.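 Tested at 5 concentrations; 48 h exposure; 96-well plates; endpoints linearly interpolated, else capped at highest concentration. GI50 marks 50% less growth. Definition used: TGI = concentration required for complete inhibition of growth.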 A value given as a limit tells only on which side of the number the result lay.

Holding throughout (test): NCI anticancer screen, dose series, 48 h
The subject of assay [1] is HCT-116 colon.
Assay [2] has as its system PC-3 prostate.
Assay [3] relates to RPMI-8226 leukemia.
For assay [4], the system named is SF-295 CNS.
In assay [5] the test system is SNB-19 CNS.
The test system of assay [6] is SNB-75 CNS.
The subject of assay [7] is T-47D breast.
The test system of assay [8] is UACC-257 melanoma.
For assay [9], the system named is UO-31 renal.

Turning to `COc1cc2c(cc1O)NC(=O)[C@@H]1C[C@@H](O)CN1C2=O`, the TGI in assay [1], in assay [2], in assay [3], in [4], in assay [5] and in assay [6] was greater than 100 µM in each case. The TGI in assay [7], in assay [8] and in [9] was greater than 100 µM in each case.
Regarding `CCCCCCCCCCCCCCCCNc1nc(=O)n(C2OC(C)C(O)C2O)cc1F` (stereo unspecified), the TGI was determined as 36.7 µM in assay [1]; 28.1 µM in [2]; 33.9 µM in assay [3]; 43 µM in [4]; 39.7 µM in assay [5]; 33.1 µM in [6]. The TGI in assay [7] came out at 43.8 µM; in assay [8] it was 35.5 µM; in [9] it was 27.2 µM.
On to `C/C(=N\NC(=S)NC(C)(C)C)c1nc2ncccc2[nH]1`, for which the TGI in assay [1] is greater than 100 µM; in [2], greater than 100 µM; in assay [3] it was greater than 100 µM; in assay [4] it was greater than 100 µM; in [5], greater than 90.5 µM; in assay [6], greater than 84.5 µM. The values for the TGI in assay [7], in [8] and in assay [9] were greater than 33.7 µM, greater than 100 µM and 5.82 µM, respectively.
Take `NC(=O)CSc1nc2ccccc2c(=O)n1N`: the TGI in [1], in assay [2], in assay [3], in [4], in assay [5] and in [6] was greater than 100 µM in each case. The TGI in assay [7], in assay [8] and in assay [9] was greater than 100 µM throughout.
On to `O=C(Nc1ccc(-n2cc(-c3ccncc3)c(-c3ccc(O)c(Cl)c3)n2)cc1)Nc1cc(C(F)(F)F)cc(C(F)(F)F)c1`, for which the GI50 was 3.78 µM in assay [1]; 2.92 µM in assay [2]; 2.81 µM in [3]; 2.08 µM in assay [4]; 4.45 µM in assay [5]; 2.07 µM in assay [6]. Moreover, the results for the GI50 in [7], in [8] and in [9] were 3.28 µM, 5.81 µM and 1.94 µM, respectively. Moreover, the TGI turned out to be 13.7 µM in [1]; 11.5 µM in assay [2]; 9.95 µM in assay [3]; 6.56 µM in assay [4]; 16.5 µM in [5]; 12.6 µM in assay [6]. Further, the TGI was determined as 10.7 µM in assay [7], 20.5 µM in [8] and 12.6 µM in [9].
In the case of `Cc1ccc(S(=O)(=O)NC(=O)Nc2ccc(C(=O)O)cc2)cc1`, the TGI in [1], in assay [2], in assay [3], in assay [4], in [5] and in assay [6] was greater than 100 µM in each case. In addition, the TGI in assay [7], in [8] and in [9] was greater than 100 µM in each case.
Regarding `COc1ccc(S(=O)(=O)NC(CCC(=O)NC(N)=O)C(=O)NC(N)=O)cc1` (stereo unspecified), the TGI in assay [1], in assay [2], in assay [3], in assay [4], in assay [5] and in assay [6] was greater than 100 µM in each case. In addition, the TGI in [7], in assay [8] and in assay [9] was greater than 100 µM in each case.
With `COc1cc2c(cc1OC)C1=C(C=O)c3ccc(OC)c(OC)c3C(O)N1CC2` (stereo unspecified), the TGI in assay [1] was greater than 100 µM; in [2], 54 µM; in assay [3], 38.3 µM; in assay [4], greater than 100 µM; in assay [5], greater than 100 µM; in [6], 38.6 µM. The TGI in assay [7] is 57.9 µM; in assay [8], 50 µM; in [9], greater than 100 µM.
As for `O=C1Nc2noc(=O)nc2NO1`, the TGI in [1], in assay [2], in [3], in assay [4], in assay [5] and in assay [6] was greater than 200 µM each time. The TGI in [7], in assay [8] and in assay [9] was greater than 200 µM in each case.
As for `COc1ccc2oc(=O)c(-c3cc4c(c(C)n3)c(=O)oc3ccc(OC)cc34)cc2c1`, the TGI in assay [1] is greater than 100 µM; in [2] it was greater than 100 µM; in assay [3] it was greater than 100 µM; in assay [4] it was greater than 100 µM; in [5], 57.6 µM; in assay [6], greater than 100 µM. In addition, the TGI in assay [7], in [8] and in assay [9] was greater than 100 µM in each case.
`Cn1c2c(c3c(=O)[nH]ncc31)Cc1ccccc1-2`: the TGI in [1] is 60.8 µM; in assay [2] it was greater than 100 µM; in assay [3] it was 69 µM; in assay [4], 25.7 µM; in [5], greater than 100 µM; in assay [6] it was 34.9 µM. Also, the TGI in assay [7] came out at 78.2 µM; in assay [8], 27.1 µM; in assay [9] it was 45.1 µM.
As to `Cc1nc(C(=Nc2ccc(Br)cc2)Nn2cnnc2)no1`, the TGI in assay [1], in assay [2], in [3], in assay [4], in assay [5] and in assay [6] was greater than 100 µM in each case. In addition, the TGI in [7], in [8] and in assay [9] was greater than 100 µM each time.
For `CC(=O)Oc1cc2c(cc1OCC(F)(F)F)[C@H]1CC[C@]3(C)[C@@H](OC(C)=O)CC[C@H]3[C@@H]1CC2=O`, the TGI is 55 µM in assay [1]; 37.6 µM in assay [2]; 68.8 µM in assay [3]; 88.3 µM in assay [4]; greater than 67 µM in [5]; 52.3 µM in [6]. For the same compound, the TGI in assay [7] was greater than 89.1 µM; in [8] it was 72.8 µM; in assay [9], 42.2 µM.
